Test results published in patent US11319299B2, “Substituted carboxamides as inhibitors of WDR5 protein-protein binding” (PROPELLON THERAPEUTICS INC., priority 2016, dated 2022).
pKd: −log10 of the molar value. Read-outs that look alike come from different tables or passages of the source.

Target: WDR5 (Homo sapiens (Human), UniProt P61964)
Assay: Surface Plasmon Resonance (SPR) assay, KD and residence time
Assay type: binding
Conditions: read-out: WDR5 binding affinity (KD)
[1] = surface plasmon resonance (SPR)

SMILES | pKd (surface plasmon resonance (SPR) assay) | pKd [1]
C[C@@H]1CN(c2ncc(-c3cc(NC(=O)c4c[nH]c(=O)cc4C(F)F)c(N4CCN(C)[C@@H](C)C4)cc3F)cn2)CCO1 [Example 396, 4-(difluoromethyl)-N-[4-fluoro-2-[(3S)-3,4-dimethylpiperazin-1-yl]-5-[2-[(2R)-2-methylmorpholin-4-yl]pyrimidin-5-yl]phenyl]-6-oxo-1H-pyridine-3-carboxamide] | 9.25 | –
C[C@@H]1CN(c2cc(F)c(C3=CCN(c4ncc(CN(C)C)cn4)CC3)cc2NC(=O)c2c[nH]c(=O)cc2C(F)(F)F)C[C@H](C)N1C [Example 405, N-[5-[1-[5-[(dimethylamino)methyl]pyrimidin-2-yl]-3,6-dihydro-2H-pyridin-4-yl]-4-fluoro-2-[(3R,5S)-3,4,5-trimethylpiperazin-1-yl]phenyl]-6-oxo-4-(trifluoromethyl)-1H-pyridine-3-carboxamide] | – | 10.02
C[C@@H]1CN(c2cc(F)c(C3=CCN(c4ncc(CN5CCOCC5)cn4)CC3)cc2NC(=O)c2c[nH]c(=O)cc2C(F)(F)F)C[C@H](C)N1C [Example 406, N-[4-fluoro-5-[1-[5-(morpholin-4-ylmethyl)pyrimidin-2-yl]-3,6-dihydro-2H-pyridin-4-yl]-2-[(3R,5S)-3,4,5-trimethylpiperazin-1-yl]phenyl]-6-oxo-4-(trifluoromethyl)-1H-pyridine-3-carboxamide] | – | 9.34
C[C@@H]1CN(c2cc(F)c(C3=CCN(c4ncc(CN5CCN(C)CC5)cn4)CC3)cc2NC(=O)c2c[nH]c(=O)cc2C(F)(F)F)C[C@H](C)N1C [Example 407, N-[4-fluoro-5-[1-[5-[(4-methylpiperazin-1-yl)methyl]pyrimidin-2-yl]-3,6-dihydro-2H-pyridin-4-yl]-2-[(3R,5S)-3,4,5-trimethylpiperazin-1-yl]phenyl]-6-oxo-4-(trifluoromethyl)-1H-pyridine-3-carboxamide] | – | 9.64
C[C@@H]1CN(c2cc(F)c(C3=CCCN(c4ncc(CN5CCN(C)CC5)cn4)C3)cc2NC(=O)c2c[nH]c(=O)cc2C(F)(F)F)C[C@H](C)N1C [Example 416, N-[4-fluoro-5-[1-[5-[(4-methylpiperazin-1-yl)methyl]pyrimidin-2-yl]-3,6-dihydro-2H-pyridin-5-yl]-2-[(3R,5S)-3,4,5-trimethylpiperazin-1-yl]phenyl]-6-oxo-4-(trifluoromethyl)-1H-pyridine-3-carboxamide] | – | 9.97
CCN(CC)[C@@H]1CCN(c2cc(F)c(-c3cnc(N4CCOCC4)nc3)cc2NC(=O)c2c[nH]c(=O)cc2C(F)(F)F)C1 [Example 419, N-[4-fluoro-5-(2-morpholin-4-ylpyrimidin-5-yl)-2-[(3R)-3-(diethylamino)pyrrolidin-1-yl]phenyl]-6-oxo-4-(trifluoromethyl)-1H-pyridine-3-carboxamide] | – | 8.27
CC(C)N(C)[C@@H]1CCN(c2cc(F)c(-c3cnc(N4CCOCC4)nc3)cc2NC(=O)c2c[nH]c(=O)cc2C(F)(F)F)C1 [Example 420, N-[4-fluoro-5-(2-morpholin-4-ylpyrimidin-5-yl)-2-[(3R)-3-[methyl(propan-2-yl)amino]pyrrolidin-1-yl]phenyl]-6-oxo-4-(trifluoromethyl)-1H-pyridine-3-carboxamide] | – | 6.76
C[C@@H]1CN(c2ccc(-c3cc(NC(=O)c4cn(C)c(=O)cc4C(F)(F)F)c(N4C[C@@H](C)N(C)[C@@H](C)C4)cc3F)cn2)C[C@H](C)O1 [Example 422, N-[4-fluoro-5-[6-[(2R,6S)-2,6-dimethylmorpholin-4-yl]pyridin-3-yl]-2-[(3S,5R)-3,4,5-trimethylpiperazin-1-yl]phenyl]-1-methyl-6-oxo-4-(trifluoromethyl)pyridine-3-carboxamide] | – | 8.61
C[C@@H]1CN(c2cc(F)c(-c3cnc(N4CCC(C)(O)CC4)nc3)cc2NC(=O)c2c[nH]c(=O)cc2C(F)(F)F)C[C@H](C)N1C [Example 425, N-[4-fluoro-5-[2-(4-hydroxy-4-methylpiperidin-1-yl)pyrimidin-5-yl]-2-[(3R,5S)-3,4,5-trimethylpiperazin-1-yl]phenyl]-6-oxo-4-(trifluoromethyl)-1H-pyridine-3-carboxamide] | – | 8.97
CCN(CC)[C@@H]1CCN(c2cc(F)c(-c3cnc(N4CCOCC4)nc3)cc2NC(=O)c2cn(C)c(=O)cc2C(F)(F)F)C1 [Example 428, N-[4-fluoro-5-(2-morpholin-4-ylpyrimidin-5-yl)-2-[(3R)-3-(diethylamino)pyrrolidin-1-yl]phenyl]-1-methyl-6-oxo-4-(trifluoromethyl)pyridine-3-carboxamide] | – | 6.84
C[C@@H]1CN(c2ncc(-c3cc(NC(=O)c4ccc(F)cc4C(F)(F)F)c(N4C[C@@H](C)N(C)[C@@H](C)C4)cc3F)cn2)C[C@H](C)O1 [Example 431, 4-fluoro-N-[4-fluoro-5-[2-[(2R,6S)-2,6-dimethylmorpholin-4-yl]pyrimidin-5-yl]-2-[(3S,5R)-3,4,5-trimethylpiperazin-1-yl]phenyl]-2-(trifluoromethyl)benzamide] | – | 9.19
C[C@@H]1CN(c2ccc(-c3cc(NC(=O)c4ccc(F)cc4C(F)(F)F)c(N4C[C@@H](C)N(C)[C@@H](C)C4)cc3F)cn2)C[C@H](C)O1 [Example 432, 4-fluoro-N-[4-fluoro-5-[6-[(2R,6S)-2,6-dimethylmorpholin-4-yl]pyridin-3-yl]-2-[(3S,5R)-3,4,5-trimethylpiperazin-1-yl]phenyl]-2-(trifluoromethyl)benzamide] | – | 8.64
C[C@@H]1CN(c2cc(F)c(-c3ccc(N4CCOCC4)c(F)c3)cc2NC(=O)c2c[nH]c(=O)cc2C(F)F)C[C@H](C)N1C [Example 436, 4-(difluoromethyl)-N-[4-fluoro-5-(3-fluoro-4-morpholin-4-ylphenyl)-2-[(3R,5S)-3,4,5-trimethylpiperazin-1-yl]phenyl]-6-oxo-1H-pyridine-3-carboxamide] | – | 8.86

More lines, now with the values ahead:

pKd (surface plasmon resonance (SPR) assay) | pKd [1] | SMILES
– | 8.34 | C[C@@H]1CN(c2cc(F)c(-c3ccnc(S(C)(=O)=O)n3)cc2NC(=O)c2c[nH]c(=O)cc2C(F)(F)F)C[C@H](C)N1C [Example 399, N-[4-fluoro-5-(2-methylsulfonylpyrimidin-4-yl)-2-[(3R,5S)-3,4,5-trimethylpiperazin-1-yl]phenyl]-6-oxo-4-(trifluoromethyl)-1H-pyridine-3-carboxamide]
– | 9.00 | C[C@@H]1CN(c2cc(F)c(C3=CCN(c4ncc(C#N)cn4)CC3)cc2NC(=O)c2c[nH]c(=O)cc2C(F)(F)F)C[C@H](C)N1C [Example 404, N-[5-[1-(5-cyanopyrimidin-2-yl)-3,6-dihydro-2H-pyridin-4-yl]-4-fluoro-2-[(3R,5S)-3,4,5-trimethylpiperazin-1-yl]phenyl]-6-oxo-4-(trifluoromethyl)-1H-pyridine-3-carboxamide]
– | 8.56 | CC(C)COC(=O)N1CCC=C(c2cc(NC(=O)c3c[nH]c(=O)cc3C(F)(F)F)c(N3C[C@@H](C)N(C)[C@@H](C)C3)cc2F)C1 [Example 408, 2-methylpropyl 5-[2-fluoro-5-[[6-oxo-4-(trifluoromethyl)-1H-pyridine-3-carbonyl]amino]-4-[(3R,5S)-3,4,5-trimethylpiperazin-1-yl]phenyl]-3,6-dihydro-2H-pyridine-1-carboxylate]
– | 9.64 | C[C@@H]1CN(c2cc(F)c(C3=CCCN(c4ncc(C=O)cn4)C3)cc2NC(=O)c2c[nH]c(=O)cc2C(F)(F)F)C[C@H](C)N1C [Example 409, N-[4-fluoro-5-[1-(5-formylpyrimidin-2-yl)-3,6-dihydro-2H-pyridin-5-yl]-2-[(3R,5S)-3,4,5-trimethylpiperazin-1-yl]phenyl]-6-oxo-4-(trifluoromethyl)-1H-pyridine-3-carboxamide]
– | 9.14 | COc1cnc(N2CC=C(c3cc(NC(=O)c4c[nH]c(=O)cc4C(F)(F)F)c(N4C[C@@H](C)N(C)[C@@H](C)C4)cc3F)C2)nc1 [Example 437, N-[4-fluoro-5-[1-(5-methoxypyrimidin-2-yl)-2,5-dihydropyrrol-3-yl]-2-[(3R,5S)-3,4,5-trimethylpiperazin-1-yl]phenyl]-6-oxo-4-(trifluoromethyl)-1H-pyridine-3-carboxamide]
– | 8.70 | COc1cc(N2CC=C(c3cc(NC(=O)c4c[nH]c(=O)cc4C(F)(F)F)c(N4C[C@@H](C)N(C)[C@@H](C)C4)cc3F)C2)ncn1 [Example 438, N-[4-fluoro-5-[1-(6-methoxypyrimidin-4-yl)-2,5-dihydropyrrol-3-yl]-2-[(3R,5S)-3,4,5-trimethylpiperazin-1-yl]phenyl]-6-oxo-4-(trifluoromethyl)-1H-pyridine-3-carboxamide]
– | 8.61 | Cc1cnc(N2CC=C(c3cc(NC(=O)c4c[nH]c(=O)cc4C(F)(F)F)c(N4C[C@@H](C)N(C)[C@@H](C)C4)cc3F)C2)nc1 [Example 439, N-[4-fluoro-5-[1-(5-methylpyrimidin-2-yl)-2,5-dihydropyrrol-3-yl]-2-[(3R,5S)-3,4,5-trimethylpiperazin-1-yl]phenyl]-6-oxo-4-(trifluoromethyl)-1H-pyridine-3-carboxamide]
– | 8.54 | C[C@@H]1CN(c2cc(F)c(C3=CCN(c4ncc(F)cn4)C3)cc2NC(=O)c2c[nH]c(=O)cc2C(F)(F)F)C[C@H](C)N1C [Example 440, N-[4-fluoro-5-[1-(5-fluoropyrimidin-2-yl)-2,5-dihydropyrrol-3-yl]-2-[(3R,5S)-3,4,5-trimethylpiperazin-1-yl]phenyl]-6-oxo-4-(trifluoromethyl)-1H-pyridine-3-carboxamide]
– | 8.72 | C[C@@H]1CN(c2cc(F)c(C3=CCN(C(=O)N4CCCC4)C3)cc2NC(=O)c2c[nH]c(=O)cc2C(F)(F)F)C[C@H](C)N1C [Example 441, N-[4-fluoro-5-[1-(pyrrolidine-1-carbonyl)-2,5-dihydropyrrol-3-yl]-2-[(3R,5S)-3,4,5-trimethylpiperazin-1-yl]phenyl]-6-oxo-4-(trifluoromethyl)-1H-pyridine-3-carboxamide]
– | 8.44 | C[C@@H]1CN(c2cc(F)c(C3=CCN(C(=O)c4cnccn4)C3)cc2NC(=O)c2c[nH]c(=O)cc2C(F)(F)F)C[C@H](C)N1C [Example 442, N-[4-fluoro-5-[1-(pyrazine-2-carbonyl)-2,5-dihydropyrrol-3-yl]-2-[(3R,5S)-3,4,5-trimethylpiperazin-1-yl]phenyl]-6-oxo-4-(trifluoromethyl)-1H-pyridine-3-carboxamide]
